Assays:
Assay in all cases: Kinase selectivity, scanMAX Kinase assay panel (DiscoverX), % control at 1 uM
Format in all cases: binding
[1] = target: T1, scanMAX Kinase assay panel (Homo sapiens, UniProt P00533, DEL752-759); details: EGFR (S752-I759del); 1 uM; read-out: Percent Control (%)
T1 construct: purchased DiscoverX
In short: (§1)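 A single concentration of 1 uM, in DMSO, is applied across the kinase panel. Activity against an individual enzyme is assigned where % control is less than 35.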

[2] = target: T2, scanMAX Kinase assay panel (Homo sapiens, UniProt P35968); details: VEGFR2; 1 uM; read-out: Percent Control (%)
T2 construct: purchased DiscoverX
In short: as §1

[3] = target: T3, scanMAX Kinase assay panel (Homo sapiens, UniProt P36894); details: BMPR1A; 1 uM; read-out: Percent Control (%)
T3 construct: purchased DiscoverX
In short: as §1

[4] = target: T4, scanMAX Kinase assay panel (Homo sapiens, UniProt Q04912); details: MST1R; 1 uM; read-out: Percent Control (%)
T4 construct: purchased DiscoverX
In short: as §1

[5] = target: T5, scanMAX Kinase assay panel (Homo sapiens, UniProt Q08345); details: DDR1; 1 uM; read-out: Percent Control (%)
T5 construct: purchased DiscoverX
In short: as §1

[6] = target: T6, scanMAX Kinase assay panel (Homo sapiens, UniProt Q15303); details: ERBB4; 1 uM; read-out: Percent Control (%)
T6 construct: purchased DiscoverX
In short: as §1

[7] = target: T7, scanMAX Kinase assay panel (Homo sapiens, UniProt Q6P3R8); details: NEK5; 1 uM; read-out: Percent Control (%)
T7 construct: purchased DiscoverX
T7 sequence (Q6P3R8 1-708): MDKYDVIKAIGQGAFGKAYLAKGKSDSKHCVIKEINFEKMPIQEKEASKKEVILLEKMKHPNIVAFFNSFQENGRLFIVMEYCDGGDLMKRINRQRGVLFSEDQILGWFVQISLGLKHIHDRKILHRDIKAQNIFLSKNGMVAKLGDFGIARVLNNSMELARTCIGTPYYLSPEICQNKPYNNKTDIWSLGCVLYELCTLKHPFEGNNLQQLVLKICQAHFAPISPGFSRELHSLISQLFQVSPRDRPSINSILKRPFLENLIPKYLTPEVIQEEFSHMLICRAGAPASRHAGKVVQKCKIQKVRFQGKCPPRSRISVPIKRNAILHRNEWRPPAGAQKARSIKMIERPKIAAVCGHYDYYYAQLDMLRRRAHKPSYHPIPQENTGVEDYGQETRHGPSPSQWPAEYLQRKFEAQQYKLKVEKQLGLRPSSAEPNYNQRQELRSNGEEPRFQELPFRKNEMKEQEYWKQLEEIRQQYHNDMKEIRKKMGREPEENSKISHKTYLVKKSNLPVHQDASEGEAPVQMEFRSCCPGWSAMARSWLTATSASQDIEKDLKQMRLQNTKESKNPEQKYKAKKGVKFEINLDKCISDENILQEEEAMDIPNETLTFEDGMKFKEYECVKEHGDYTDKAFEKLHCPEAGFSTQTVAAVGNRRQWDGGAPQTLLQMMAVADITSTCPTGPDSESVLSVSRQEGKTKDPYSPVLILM
In short: as §1

[8] = target: T8, scanMAX Kinase assay panel (Homo sapiens, UniProt Q8NFD2); details: ANKK1; 1 uM; read-out: Percent Control (%)
T8 construct: purchased DiscoverX
T8 sequence (Q8NFD2 1-765): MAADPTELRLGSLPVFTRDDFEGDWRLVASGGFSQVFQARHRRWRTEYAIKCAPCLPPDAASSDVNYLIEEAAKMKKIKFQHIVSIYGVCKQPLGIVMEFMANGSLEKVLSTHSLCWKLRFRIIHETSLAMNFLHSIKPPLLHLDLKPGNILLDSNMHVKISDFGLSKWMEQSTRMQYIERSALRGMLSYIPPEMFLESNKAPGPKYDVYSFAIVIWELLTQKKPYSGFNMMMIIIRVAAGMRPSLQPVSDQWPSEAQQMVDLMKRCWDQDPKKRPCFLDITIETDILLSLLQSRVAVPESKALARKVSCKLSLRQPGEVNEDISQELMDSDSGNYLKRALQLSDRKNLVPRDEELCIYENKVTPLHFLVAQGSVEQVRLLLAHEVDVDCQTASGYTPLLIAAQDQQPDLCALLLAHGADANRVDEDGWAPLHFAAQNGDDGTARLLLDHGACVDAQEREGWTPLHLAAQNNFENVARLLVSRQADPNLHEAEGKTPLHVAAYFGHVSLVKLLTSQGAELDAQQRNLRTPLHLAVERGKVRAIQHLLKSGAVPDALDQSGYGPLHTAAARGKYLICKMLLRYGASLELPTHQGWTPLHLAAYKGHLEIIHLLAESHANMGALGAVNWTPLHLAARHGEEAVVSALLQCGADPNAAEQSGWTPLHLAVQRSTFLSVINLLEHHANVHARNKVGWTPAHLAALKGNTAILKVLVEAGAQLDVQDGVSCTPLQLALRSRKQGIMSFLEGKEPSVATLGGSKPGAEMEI
In short: as §1

[9] = target: T9, scanMAX Kinase assay panel (Homo sapiens, UniProt Q8TDR2); details: STK35; 1 uM; read-out: Percent Control (%)
T9 construct: purchased DiscoverX
In short: as §1

T1 sequence (P00533 with tags, fused parts or gaps DEL752-759): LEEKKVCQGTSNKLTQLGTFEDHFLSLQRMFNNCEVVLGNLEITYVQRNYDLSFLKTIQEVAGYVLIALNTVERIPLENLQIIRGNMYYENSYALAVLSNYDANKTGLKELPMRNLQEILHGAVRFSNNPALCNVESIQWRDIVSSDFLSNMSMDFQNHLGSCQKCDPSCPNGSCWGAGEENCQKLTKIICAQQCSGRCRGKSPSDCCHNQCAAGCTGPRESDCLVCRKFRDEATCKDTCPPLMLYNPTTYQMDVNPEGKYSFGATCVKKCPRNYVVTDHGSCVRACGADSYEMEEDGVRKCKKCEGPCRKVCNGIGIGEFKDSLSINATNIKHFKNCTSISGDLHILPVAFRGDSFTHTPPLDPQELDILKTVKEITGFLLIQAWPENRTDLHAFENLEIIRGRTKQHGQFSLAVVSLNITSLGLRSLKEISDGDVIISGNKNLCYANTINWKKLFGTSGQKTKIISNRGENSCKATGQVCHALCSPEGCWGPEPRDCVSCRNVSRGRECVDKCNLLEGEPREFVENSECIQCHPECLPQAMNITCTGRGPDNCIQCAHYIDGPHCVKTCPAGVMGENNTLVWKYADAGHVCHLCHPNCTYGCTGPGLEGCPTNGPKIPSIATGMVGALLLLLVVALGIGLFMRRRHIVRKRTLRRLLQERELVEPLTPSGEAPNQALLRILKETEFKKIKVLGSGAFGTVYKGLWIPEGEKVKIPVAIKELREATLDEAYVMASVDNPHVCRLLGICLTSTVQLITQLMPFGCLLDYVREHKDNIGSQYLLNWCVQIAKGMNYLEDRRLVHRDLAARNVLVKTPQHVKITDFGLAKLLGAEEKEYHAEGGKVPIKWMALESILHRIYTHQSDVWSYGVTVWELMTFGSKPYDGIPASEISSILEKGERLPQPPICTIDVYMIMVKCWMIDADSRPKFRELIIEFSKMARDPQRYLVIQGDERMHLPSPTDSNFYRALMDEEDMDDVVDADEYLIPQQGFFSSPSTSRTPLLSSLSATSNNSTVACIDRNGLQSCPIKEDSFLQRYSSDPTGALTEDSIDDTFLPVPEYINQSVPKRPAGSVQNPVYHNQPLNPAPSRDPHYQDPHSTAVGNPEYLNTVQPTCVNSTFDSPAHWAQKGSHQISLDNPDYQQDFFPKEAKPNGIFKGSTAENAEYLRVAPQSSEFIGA
T6 sequence (Q15303 26-1308): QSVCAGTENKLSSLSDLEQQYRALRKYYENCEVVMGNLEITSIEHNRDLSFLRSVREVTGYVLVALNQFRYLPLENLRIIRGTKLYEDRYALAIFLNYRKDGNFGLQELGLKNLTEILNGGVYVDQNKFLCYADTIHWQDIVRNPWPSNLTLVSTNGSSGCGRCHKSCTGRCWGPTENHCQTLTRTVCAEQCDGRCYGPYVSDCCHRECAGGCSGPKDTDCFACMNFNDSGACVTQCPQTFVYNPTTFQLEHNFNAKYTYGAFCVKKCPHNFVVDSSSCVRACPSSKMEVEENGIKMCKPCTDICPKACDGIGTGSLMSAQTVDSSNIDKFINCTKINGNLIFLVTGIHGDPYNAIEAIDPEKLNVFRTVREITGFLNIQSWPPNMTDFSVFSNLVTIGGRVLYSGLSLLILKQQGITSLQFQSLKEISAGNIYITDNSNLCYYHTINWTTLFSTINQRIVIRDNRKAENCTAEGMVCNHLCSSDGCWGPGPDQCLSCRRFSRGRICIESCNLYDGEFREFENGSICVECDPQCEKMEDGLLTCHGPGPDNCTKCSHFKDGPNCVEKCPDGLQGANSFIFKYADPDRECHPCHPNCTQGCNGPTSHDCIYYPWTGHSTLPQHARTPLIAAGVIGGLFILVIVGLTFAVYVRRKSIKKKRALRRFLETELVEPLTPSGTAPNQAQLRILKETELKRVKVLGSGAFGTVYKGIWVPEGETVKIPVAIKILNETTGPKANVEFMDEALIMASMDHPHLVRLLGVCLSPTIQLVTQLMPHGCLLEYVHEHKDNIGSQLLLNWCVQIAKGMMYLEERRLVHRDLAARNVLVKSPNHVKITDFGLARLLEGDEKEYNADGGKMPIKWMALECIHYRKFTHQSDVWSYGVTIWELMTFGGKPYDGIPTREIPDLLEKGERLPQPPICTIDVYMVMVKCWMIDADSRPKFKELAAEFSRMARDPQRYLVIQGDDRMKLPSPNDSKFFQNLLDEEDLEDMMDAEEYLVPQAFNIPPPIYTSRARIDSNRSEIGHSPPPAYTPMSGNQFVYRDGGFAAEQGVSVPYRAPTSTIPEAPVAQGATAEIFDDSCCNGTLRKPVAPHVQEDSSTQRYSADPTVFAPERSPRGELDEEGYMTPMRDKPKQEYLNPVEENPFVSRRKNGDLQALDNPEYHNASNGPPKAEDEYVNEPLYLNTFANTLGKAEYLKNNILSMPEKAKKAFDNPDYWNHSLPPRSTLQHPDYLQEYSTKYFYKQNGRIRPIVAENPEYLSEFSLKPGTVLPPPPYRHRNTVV
T2 sequence (P35968 20-1356): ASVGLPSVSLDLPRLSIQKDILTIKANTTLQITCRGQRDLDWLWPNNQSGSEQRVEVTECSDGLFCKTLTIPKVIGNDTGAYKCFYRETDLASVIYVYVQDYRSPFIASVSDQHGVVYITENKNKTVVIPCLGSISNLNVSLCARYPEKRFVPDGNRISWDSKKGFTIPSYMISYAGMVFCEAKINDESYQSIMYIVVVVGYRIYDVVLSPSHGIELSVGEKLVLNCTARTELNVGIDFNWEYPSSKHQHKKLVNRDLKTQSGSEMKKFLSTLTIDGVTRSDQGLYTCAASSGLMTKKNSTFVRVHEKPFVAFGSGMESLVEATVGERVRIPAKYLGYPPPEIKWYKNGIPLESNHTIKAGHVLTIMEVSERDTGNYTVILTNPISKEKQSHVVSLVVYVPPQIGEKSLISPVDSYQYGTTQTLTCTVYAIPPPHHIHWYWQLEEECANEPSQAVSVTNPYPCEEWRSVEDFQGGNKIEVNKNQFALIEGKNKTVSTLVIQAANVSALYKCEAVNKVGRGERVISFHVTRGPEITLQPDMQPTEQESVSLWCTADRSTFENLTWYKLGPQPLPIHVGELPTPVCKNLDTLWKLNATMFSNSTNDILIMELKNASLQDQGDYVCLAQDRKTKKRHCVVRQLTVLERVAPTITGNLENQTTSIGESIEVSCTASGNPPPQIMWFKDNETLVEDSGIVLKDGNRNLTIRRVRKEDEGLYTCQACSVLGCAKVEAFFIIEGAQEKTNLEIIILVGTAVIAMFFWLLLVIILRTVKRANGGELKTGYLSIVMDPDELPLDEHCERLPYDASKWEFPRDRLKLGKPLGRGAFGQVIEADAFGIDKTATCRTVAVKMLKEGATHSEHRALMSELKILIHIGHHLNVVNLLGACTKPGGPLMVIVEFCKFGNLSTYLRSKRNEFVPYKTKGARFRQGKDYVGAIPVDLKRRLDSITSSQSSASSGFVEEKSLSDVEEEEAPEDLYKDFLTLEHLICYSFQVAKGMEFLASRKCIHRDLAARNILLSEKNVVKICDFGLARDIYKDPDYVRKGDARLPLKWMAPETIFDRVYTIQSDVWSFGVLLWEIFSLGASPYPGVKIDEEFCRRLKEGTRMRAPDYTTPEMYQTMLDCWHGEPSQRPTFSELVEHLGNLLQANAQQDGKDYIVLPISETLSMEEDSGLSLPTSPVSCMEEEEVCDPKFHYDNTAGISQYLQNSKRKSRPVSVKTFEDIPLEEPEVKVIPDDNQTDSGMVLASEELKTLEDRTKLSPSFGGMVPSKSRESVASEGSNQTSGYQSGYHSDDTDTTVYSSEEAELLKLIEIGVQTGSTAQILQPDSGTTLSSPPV
T9 sequence (Q8TDR2 whole entry): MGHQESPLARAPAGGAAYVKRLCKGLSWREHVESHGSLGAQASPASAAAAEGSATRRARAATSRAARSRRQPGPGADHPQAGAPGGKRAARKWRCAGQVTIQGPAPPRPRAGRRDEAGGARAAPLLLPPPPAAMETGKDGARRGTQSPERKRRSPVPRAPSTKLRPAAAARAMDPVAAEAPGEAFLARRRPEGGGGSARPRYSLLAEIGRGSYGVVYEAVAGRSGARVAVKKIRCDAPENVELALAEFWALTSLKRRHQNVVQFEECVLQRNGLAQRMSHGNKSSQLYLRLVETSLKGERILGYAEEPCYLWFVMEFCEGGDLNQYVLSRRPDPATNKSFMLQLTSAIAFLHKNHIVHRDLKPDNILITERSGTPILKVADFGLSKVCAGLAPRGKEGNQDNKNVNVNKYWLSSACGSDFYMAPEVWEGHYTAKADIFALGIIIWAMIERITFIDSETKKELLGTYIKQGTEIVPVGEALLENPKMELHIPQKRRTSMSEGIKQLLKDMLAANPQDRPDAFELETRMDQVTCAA
T3 sequence (P36894 24-532): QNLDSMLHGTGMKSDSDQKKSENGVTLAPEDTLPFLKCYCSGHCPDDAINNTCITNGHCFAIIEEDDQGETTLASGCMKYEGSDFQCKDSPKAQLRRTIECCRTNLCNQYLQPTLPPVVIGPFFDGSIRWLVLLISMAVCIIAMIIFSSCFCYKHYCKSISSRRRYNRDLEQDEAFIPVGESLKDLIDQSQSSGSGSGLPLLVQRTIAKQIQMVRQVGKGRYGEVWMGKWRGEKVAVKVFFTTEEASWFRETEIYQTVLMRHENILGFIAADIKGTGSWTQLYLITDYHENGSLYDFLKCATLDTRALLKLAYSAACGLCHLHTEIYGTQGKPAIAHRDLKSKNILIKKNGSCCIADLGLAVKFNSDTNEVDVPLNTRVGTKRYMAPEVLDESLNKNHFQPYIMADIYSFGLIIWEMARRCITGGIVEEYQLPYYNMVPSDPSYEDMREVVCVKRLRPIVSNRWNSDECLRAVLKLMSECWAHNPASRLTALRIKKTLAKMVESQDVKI

Row | SMILES | remaining binding at 1 µM [1] [%] | remaining binding at 1 µM [2] [%] | remaining binding at 1 µM [3] [%] | remaining binding at 1 µM [4] [%] | remaining binding at 1 µM [5] [%] | remaining binding at 1 µM [6] [%] | remaining binding at 1 µM [7] [%] | remaining binding at 1 µM [8] [%] | remaining binding at 1 µM [9] [%]
1 | Cc1ccc(NC(=O)C2(C(=O)Nc3ccc(F)cc3)CC2)cc1C#Cc1cnc2c(Nc3cnn(C(C)C)c3)cccn12 [Example 78] | 100 | 63 | 94 | 97 | 1 | 100 | 100 | 97 | 100
2 | Cc1cn(-c2cc(NC(=O)c3ccc(C)c(C#Cc4cnc5c(Nc6cnn(C)c6)cccn45)c3)cc(C(F)(F)F)c2)cn1 [Example 12, 4-methyl-N-(3-(4-methyl-1H-imidazol-1-yl)-5-(trifluoromethyl)phenyl)-3-((8-((1-methyl-1H-pyrazol-4-yl)amino)imidazo[1,2-a]pyridin-3-yl)ethynyl)benzamide] | 8 | 55 | 60 | 87 | 7 | 32 | 86 | 100 | 58
3 | Cc1ccc(C(=O)Nc2ccc(CN3CCN(C)CC3)c(C(F)(F)F)c2)cc1C#Cc1cnc2c(Nc3cnn(C)c3)cccn12 [Example 1, 4-methyl-3-((8-((1-methyl-1H-pyrazol-4-yl)amino)imidazo[1,2-a]pyridin-3-yl)ethynyl)-N-(4-((4-methylpiperazin-1-yl)methyl)-3-(trifluoromethyl)phenyl)benzamide] | 7 | 5 | 77 | 32 | 0 | 0 | 2 | 4 | 33

— patent US10870647B2, “Imidazopyridine derivative, method for preparing same, and pharmaceutical composition containing same as active ingredient for preventing or treating cancer” (DAEGU-GYEONGBUK MEDICAL INNOVATION FOUNDATION, priority 2016, dated 2020)
